Key:
Assay type in all cases: in vivo
[1] = system: crabgrass, large (large crabgrass, Digitaria sanguinalis); test: Test F pre-/postemergence: crabgrass, large; details: Preemergence
From the text: (§1) Seeds of plant species selected from corn (Zea mays), soybean (Glycine max), velvetleaf (Abutilon theophrasti), lambsquarters (Chenopodium album), poinsettia, wild (wild poinsettia, Euphorbia heterophylla), pigweed, palmer (palmer pigweed, Amaranthus palmeri), waterhemp (common waterhemp, Amaranthus rudis), surinam grass (Brachiaria decumbens), crabgrass, Brazil (Brazilian crabgrass, Digitaria horizontalis), panicum, fall (fall panicum Panicum dichotomiflorum), crabgrass, large (large crabgrass, Digitaria sanguinalis), foxtail, giant (giant foxtail, Setaria faberii), foxtail, green (green foxtail Setaria viridis), goosegrass (Eleusine indica), ragweed (common ragweed, Ambrosia elatior), barnyardgrass (Echinochloa crus-galli), sandbur (southern sandbur, Cenchrus echinatus), arrowleaf sida (Sida rhombifolia), ryegrass, Italian (Italian ryegrass, Lolium multiflorum), dayflower, VA (Virginia (VA) dayflower, Commelina virginica), field bindweed (Convolvulus arvensis), cocklebur (common cocklebur, Xanthium strumarium), morningglory (Ipomoea coccinea), nightshade (eastern black nightshade, Solanum ptycanthum), kochia (Kochia scoparia), nutsedge, yellow (yellow nutsedge, Cyperus esculentus), johnsongrass (Sorghum halepense), smartweed (ladysthumb smartweed, Polygonum persicaria), and beggarticks (hairy beggarticks, Bidens pilosa), were planted into a silt loam soil and treated preemergence with test chemicals formulated in a non-phytotoxic solvent mixture which included a surfactant. At the same time, plants selected from these crop and weed species and also pigweed (Amaranthus retroflexus), waterhemp_RES1 (ALS/Triazine resistant common waterhemp, Amaranthus rudis) and waterhemp_RES2 (ALS/HPPD resistant common waterhemp, Amaranthus rudis) were planted in pots containing a planting medium comprising spaghnum peat moss, vermiculite, wetting agent and starter nutrients treated with postemergence applications of some of the test chemicals formulated in the same manner. Plants ranged in height from 2 to 18 cm for postemergence treatments (1- to 4-leaf stage).
(§2) Treated plants and controls were maintained in a greenhouse for 14 to 21 days, after which time all species were compared to controls and visually evaluated. Plant response ratings, summarized in Table E, are based on a scale of 0 to 100 where 0 is no effect and 100 is complete control. A dash (-) response means no test result.

[2] = system: dayflower, VA (Virginia (VA) dayflower, Commelina virginica); test: Test F pre-/postemergence: dayflower, VA
From the text: as §1, §2

[3] = system: lambsquarters (Chenopodium album); test: Test F pre-/postemergence: lambsquarters; details: Preemergence
From the text: as §1, §2

[4] = system: field bindweed (Convolvulus arvensis); test: Test F pre-/postemergence: field bindweed
Summary of the method: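 Preemergence treatment of seeds sown in silt loam soil, and postemergence treatment of plants 2–18 cm tall (1- to 4-leaf stage), with compounds in non-phytotoxic solvent plus surfactant. Greenhouse 14–21 days, then visual rating versus controls on 0–100 scale (100 = complete control).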

[5] = 16 g ai/ha, scale 0 to 100, 0 no effect, 100 complete control
[6] = 31 g ai/ha, scale 0 to 100, 0 no effect, 100 complete control
[7] = Postemergence, 250 g ai/ha, scale 0 to 100
[8] = Postemergence, 16 g ai/ha, scale 0 to 100
[9] = Postemergence, 31 g ai/ha, scale 0 to 100
[10] = Postemergence, 62 g ai/ha, scale 0 to 100
[11] = Postemergence, 125 g ai/ha, scale 0 to 100
[12] = Preemergence, 16 g ai/ha, scale 0 to 100, 0 no effect, 100 complete control
[13] = Preemergence, 31 g ai/ha, scale 0 to 100, 0 no effect, 100 complete control
[14] = Preemergence, 62 g ai/ha, scale 0 to 100
[15] = Preemergence, 125 g ai/ha, scale 0 to 100
[16] = Preemergence, 250 g ai/ha, scale 0 to 100

## CCc1nn(-c2ccc(C(F)(F)F)cc2)nc1Oc1ccnc(C(F)(F)F)c1 [Compound 169]
[1]; [5]
  Plant response rating, Crabgrass, Large: 98
[1]; [6]
  Plant response rating, Crabgrass, Large: 98
[1]; 62 g ai/ha, scale 0 to 100
  Plant response rating, Crabgrass, Large: 100
[1]; 125 g ai/ha, scale 0 to 100
  Plant response rating, Crabgrass, Large: 100
[1]; 250 g ai/ha, scale 0 to 100
  Plant response rating, Crabgrass, Large: 100
[2]; [7]
  Plant response rating, Dayflower, VA: 20
[2]; [8]
  Plant response rating, Dayflower, VA: 10
[2]; [9]
  Plant response rating, Dayflower, VA: 10
[2]; [10]
  Plant response rating, Dayflower, VA: 10
[2]; [11]
  Plant response rating, Dayflower, VA: 10
[2]; [12]
  Plant response rating, Dayflower, VA: 0
[2]; [13]
  Plant response rating, Dayflower, VA: 5
[2]; [14]
  Plant response rating, Dayflower, VA: 10
[2]; [15]
  Plant response rating, Dayflower, VA: 65
[2]; [16]
  Plant response rating, Dayflower, VA: 75
[3]; [5]
  Plant response rating, Lambsquarters: 0
[3]; [6]
  Plant response rating, Lambsquarters: 30
[3]; 62 g ai/ha, scale 0 to 100
  Plant response rating, Lambsquarters: 98
[3]; 125 g ai/ha, scale 0 to 100
  Plant response rating, Lambsquarters: 98
[3]; 250 g ai/ha, scale 0 to 100
  Plant response rating, Lambsquarters: 100
[4]; [7]
  Plant response rating, Field Bindweed: 55
[4]; [8]
  Plant response rating, Field Bindweed: 20
[4]; [9]
  Plant response rating, Field Bindweed: 20
[4]; [10]
  Plant response rating, Field Bindweed: 30
[4]; [11]
  Plant response rating, Field Bindweed: 35
[4]; [12]
  Plant response rating, Field Bindweed: 0
[4]; [13]
  Plant response rating, Field Bindweed: 0
[4]; [15]
  Plant response rating, Field Bindweed: 20
[4]; [16]
  Plant response rating, Field Bindweed: 80

## CCc1nn(-c2ccc(F)c(F)c2)nc1Oc1ccnc(C(F)(F)F)c1 [Compound 171]
[1]; [5]
  Plant response rating, Crabgrass, Large: 75
[1]; [6]
  Plant response rating, Crabgrass, Large: 98
[1]; 62 g ai/ha, scale 0 to 100
  Plant response rating, Crabgrass, Large: 98
[1]; 125 g ai/ha, scale 0 to 100
  Plant response rating, Crabgrass, Large: 100
[1]; 250 g ai/ha, scale 0 to 100
  Plant response rating, Crabgrass, Large: 100
[2]; [12]
  Plant response rating, Dayflower, VA: 0
[2]; [13]
  Plant response rating, Dayflower, VA: 0
[2]; [14]
  Plant response rating, Dayflower, VA: 0
[2]; [15]
  Plant response rating, Dayflower, VA: 30
[2]; [16]
  Plant response rating, Dayflower, VA: 30
[3]; [5]
  Plant response rating, Lambsquarters: 0
[3]; [6]
  Plant response rating, Lambsquarters: 0
[3]; 62 g ai/ha, scale 0 to 100
  Plant response rating, Lambsquarters: 35
[3]; 125 g ai/ha, scale 0 to 100
  Plant response rating, Lambsquarters: 65
[3]; 250 g ai/ha, scale 0 to 100
  Plant response rating, Lambsquarters: 98
[4]; [12]
  Plant response rating, Field Bindweed: 0
[4]; [13]
  Plant response rating, Field Bindweed: 0
[4]; [14]
  Plant response rating, Field Bindweed: 0
[4]; [15]
  Plant response rating, Field Bindweed: 5
[4]; [16]
  Plant response rating, Field Bindweed: 5

## CCCc1nn(-c2ccc(F)c(F)c2)nc1Oc1ccnc(C(F)(F)F)c1 [Compound 172]
[1]; [6]
  Plant response rating, Crabgrass, Large: 100
[1]; 125 g ai/ha, scale 0 to 100
  Plant response rating, Crabgrass, Large: 100
[1]; 250 g ai/ha, scale 0 to 100
  Plant response rating, Crabgrass, Large: 100
[2]; [7]
  Plant response rating, Dayflower, VA: 50
[2]; [9]
  Plant response rating, Dayflower, VA: 20
[2]; [11]
  Plant response rating, Dayflower, VA: 30
[2]; [13]
  Plant response rating, Dayflower, VA: 40
[2]; [15]
  Plant response rating, Dayflower, VA: 70
[2]; [16]
  Plant response rating, Dayflower, VA: 90
[3]; [6]
  Plant response rating, Lambsquarters: 50
[3]; 125 g ai/ha, scale 0 to 100
  Plant response rating, Lambsquarters: 98
[3]; 250 g ai/ha, scale 0 to 100
  Plant response rating, Lambsquarters: 98
[4]; [7]
  Plant response rating, Field Bindweed: 60
[4]; [9]
  Plant response rating, Field Bindweed: 25
[4]; [11]
  Plant response rating, Field Bindweed: 60
[4]; [13]
  Plant response rating, Field Bindweed: 5
[4]; [15]
  Plant response rating, Field Bindweed: 95
[4]; [16]
  Plant response rating, Field Bindweed: 95
